# Several values for one entry are separate records, joined by “and”; a condition that tells them apart may be missing. Equal entries are not always repeated.
# Target: T1, human KMO (Homo sapiens, UniProt O15229)
# T1 construct: Full length human KMO was amplified by PCR; made in house; host or cells: Spodoptera frugiperda (Sf9) cells, baculovirus; used as purified membranes
# Experiment: KMO MS Rapidfire functional assay (RapidFire high-throughput mass spectrometry, Method 1 or Method 2)
# Type: biochemical
# Settings: in at least one of the MS Rapidfire assays (Method 1 or 2); isolated human KMO-membranes, 10 μM Kynurenine, 200 μM NADPH; values exemplary only
# Source text: KMO inhibition can be determined by MS Rapidfire assay performed on the human cloned enzyme as described herein.
# L-Kynurenine (Kyn), 3-hydroxy-DL-kynurenine (3-HK), β-Nicotinamide adenine dinucleotide 2′-phosphate reduced tetrasodium salt hydrate (NADPH), 4-(2-hydroxyethyl)piperazine-1-ethanesulfonic acid (Hepes), DL-dithiothreitol (DTT), ethylenediaminetetraacetic acid (EDTA), CHAPS and trifluoroacetic acid (TFA) were purchased from Sigma-Aldrich Ltd. (Gillingham, Dorset, UK). HPLC-grade acetonitrile and formic acid were supplied by Fisher Scientific (Loughborough, UK).
# Full length human KMO was amplified by PCR from pcDNA5/FRT/V5-His-TOPO/hKMO (vector supplied by the University of Edinburgh) and cloned into pGEX6P-1 (GE Healthcare) using BamH1 and Sal1 restriction sites. DNA encoding the N-terminal glutathione-S-transferase (GST) tag, followed by a Pre-Scission protease cleavage site, and the full length KMO was amplified by PCR from pGEX6P-1-KMO and cloned into pFastbac1 (Invitrogen) using Xbal and EcoR1 restriction sites.
# pFastbac1 GST-KMO was transposed into the baculovirus genome using the BAC-to-BAC technology (Invitrogen) and bacmid DNA was prepared and transfected into Spodoptera frugiperda (Sf9) cells using Cellfectin II (Invitrogen).
# A P1 virus stock was generated from a single clone and used to infect 3× 1.5 L cultures of Sf9 cells in 3 L Corning Fernbach flasks. […] Cells were harvested after 48 hours and disrupted by blending in 50 mM Hepes, pH 7.4, 1 mM EDTA buffer containing protease inhibitors. A low speed spin (400 g) was used to remove cell debris, followed by a high speed spin (75 000 g) to pellet the membranes. The membranes were purified in a discontinuous sucrose density gradient by re-suspending in 10% (w/v) sucrose and layering over 40% (w/v) sucrose, both in the above buffer. This was centrifuged at 150 000 g and the purified membranes were taken from the interface, collected by centrifugation at 100 000 g, resuspended in buffer and aliquoted for storage at −80° C.
# 11 point, 3-fold serial dilutions of test compounds were prepared in DMSO and 100 nL of these solutions were dispensed into 384-well V-base polypropylene plates (Greiner Bio-one, Stonehouse, UK) using an Echo 555 acoustic dispenser (Labcyte, Sunnyvale, Calif.). This gave a final assay concentration range between 100 μM and 1.7 nM in 10 μL final assay volume (see below). 100 nL DMSO was dispensed into columns 6 and 18 for high and low controls, respectively, with prior inactivation of the enzyme in column 18 by pre-dispense of 30 μL of 0.5% (v/v) TFA.
# Conditions for the assay of human KMO using isolated KMO-membranes were 50 mM Hepes, pH 7.5, 2 mM DTT, 1 mM EDTA, 100 μM CHAPS, 200 μM NADPH, 10 μM Kynurenine and 8 μg/ml KMO-membranes in a total reaction volume of 10 μL.
# Assays were performed by initially dispensing 5 μL of a 2× Enzyme solution (16 μg/ml KMO-membranes in 50 mM Hepes, pH 7.5, 2 mM DTT, 2 mM EDTA, 200 μM CHAPS) into plates containing 100 nL compounds and incubating for 10 min at ambient temperature. Reactions were initiated by addition of 5 μL of 2× Substrate solution (400 μM NADPH, 20 μM Kynurenine in 50 mM Hepes, pH 7.5, 2 mM DTT) and incubated for 2 h at room temperature before quenching the reaction with 30 μL of 0.5% (v/v) TFA. Plates were centrifuged at 2500 rpm for 10 min before analysis. All additions were made using a Multidrop Combi dispenser (Thermo Fisher Scientific).
# Quenched assay plates were transferred to a high-throughput RapidFire200 integrated autosampler/solid-phase extraction (SPE) system (Agilent Technologies, Wakefield, Mass.).
# T1 sequence (O15229 whole entry): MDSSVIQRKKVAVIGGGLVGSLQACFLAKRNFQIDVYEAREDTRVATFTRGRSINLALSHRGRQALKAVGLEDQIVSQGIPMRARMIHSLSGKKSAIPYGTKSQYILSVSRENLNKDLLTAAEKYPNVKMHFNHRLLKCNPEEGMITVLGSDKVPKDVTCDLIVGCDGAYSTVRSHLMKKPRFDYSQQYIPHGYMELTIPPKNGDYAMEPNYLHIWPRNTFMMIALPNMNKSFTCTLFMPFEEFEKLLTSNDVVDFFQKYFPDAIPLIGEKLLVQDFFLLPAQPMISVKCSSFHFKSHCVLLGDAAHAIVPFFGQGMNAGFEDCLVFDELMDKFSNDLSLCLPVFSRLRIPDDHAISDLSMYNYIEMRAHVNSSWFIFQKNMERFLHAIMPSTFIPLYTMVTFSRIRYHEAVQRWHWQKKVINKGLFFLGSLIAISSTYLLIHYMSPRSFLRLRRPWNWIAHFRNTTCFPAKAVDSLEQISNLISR
row,median pIC50,SMILES
1,8.7,"Cc1ccc([C@@H](C)Oc2cc3onc(CCC(=O)O)c3cc2Cl)nn1 [Example 20, (R)-3-(5-chloro-6-(1-(6-methylpyridazin-3-yl)ethoxy)benzo[d]isoxazol-3-yl)propanoic acid]"

# Same assay, conditions: in at least one of the MS Rapidfire assays (Method 1 or 2); isolated human KMO-membranes, 10 μM Kynurenine, 200 μM NADPH; values exemplary only; read-out: median pIC50 (converted)
row,SMILES,IC50
1,"CCC(Oc1cc2onc(CCC(=O)O)c2cc1Cl)c1ncc(C)cn1 (single isomer, unassigned) [Example 49, 3-{5-Chloro-6-[1-(5-methylpyrimidin-2-yl)propoxy]-1,2-benzoxazol-3-yl}propanoic acid]",0.01 µM
2,"CCC(Oc1cc2onc(CCC(=O)O)c2cc1Cl)c1ccccn1 (single isomer, unassigned) [Example 25, 3-(5-chloro-6-(1-(pyridin-2-yl)propoxy)benzo[d]isoxazol-3-yl)propanoic acid]",≤ 0.01 µM and 0.00398 µM
3,"CCC(Oc1cc2onc(CCC(=O)O)c2cc1Cl)c1cccnn1 (single isomer, unassigned) [Example 46, 3-{5-Chloro-6-[1-(pyridazin-3-yl)propoxy]-1,2-benzoxazol-3-yl}propanoic acid]",0.01 µM
4,"O=C(O)CCc1noc2cc(OCc3ccccn3)c(Cl)cc12 [Example 2, 2-amino-2-(hydroxymethyl)propane-1,3-diol 3-(5-chloro-6-(pyridin-2-ylmethoxy)benzo[d]isoxazol-3-yl)propanoate]",≤ 0.01 µM
5,"O=C(O)CCc1noc2cc(OCc3ccc(Cl)cn3)c(Cl)cc12 [Example 7, 2-amino-2-(hydroxymethyl)propane-1,3-diol 3-(5-chloro-6-((5-chloropyridin-2-yl)methoxy)benzo[d]isoxazol-3-yl)propanoate]",0.00251 µM
6,"CCC(Oc1cc2onc(CCC(=O)O)c2cc1Cl)c1ccc(Cl)cn1 (single isomer, unassigned) [Example 27, 3-(5-chloro-6-(1-(5-chloropyridin-2-yl)propoxy)benzo[d]isoxazol-3-yl)propanoic acid]",≤ 0.01 µM
7,"CC(Oc1cc2onc(CCC(=O)O)c2cc1Cl)c1ncc(Cl)cn1 (single isomer, unassigned) [Example 37, 3-{5-Chloro-6-[1-(5-chloropyrimidin-2-yl)ethoxy]-1,2-benzoxazol-3-yl}propanoic acid]",0.01 µM
8,"CCC(Oc1cc2onc(CCC(=O)O)c2cc1Cl)c1ccc(C)cn1 (single isomer, unassigned) [Example 23, 3-(5-chloro-6-(1-(5-methylpyridin-2-yl)propoxy)benzo[d]isoxazol-3-yl)propanoic acid]",≤ 0.01 µM
9,"O=C(O)CCc1noc2cc(OCc3cccnn3)c(Cl)cc12 [Example 13, 3-(5-chloro-6-(pyridazin-3-ylmethoxy)benzo[d]isoxazol-3-yl)propanoic acid]",≤ 0.01 µM
10,"CCc1coc(C(C)Oc2cc3onc(CCC(=O)O)c3cc2Cl)n1 (single isomer, unassigned) [Example 41, 3-{5-Chloro-6-[1-(4-ethyl-1,3-oxazol-2-yl)ethoxy]-1,2-benzoxazol-3-yl}propanoic acid]",0.01 µM
11,"CCC(Oc1cc2onc(CCC(=O)O)c2cc1Cl)c1ncc(Cl)cn1 (single isomer, unassigned) [Example 51, 3-{5-Chloro-6-[1-(5-chloropyrimidin-2-yl)propoxy]-1,2-benzoxazol-3-yl}propanoic acid]",0.01 µM
12,"CC[C@H](Oc1cc2onc(CCC(=O)O)c2cc1Cl)c1ncccn1 (single isomer, unassigned) [Example 43]",0.01 µM

# More lines, now with the values ahead:
row,IC50,SMILES
1,0.01 µM,"CCc1ccc(C(C)Oc2cc3onc(CCC(=O)O)c3cc2Cl)nc1 (single isomer, unassigned) [Example 29, 3-{5-Chloro-6-[1-(5-ethylpyridin-2-yl)ethoxy]-1,2-benzoxazol-3-yl}propanoic acid]"
2,≤ 0.01 µM,"CC(Oc1cc2onc(CCC(=O)O)c2cc1Cl)c1cccnn1 (single isomer, unassigned) [Example 22, 3-(5-chloro-6-(1-(pyridazin-3-yl)ethoxy)benzo[d]isoxazol-3-yl)propanoic acid]"
3,0.01 µM,"Cc1ncc(C(C)Oc2cc3onc(CCC(=O)O)c3cc2Cl)o1 (single isomer, unassigned) [Example 35, 3-{5-Chloro-6-[1-(2-methyl-1,3-oxazol-5-yl)ethoxy]-1,2-benzoxazol-3-yl}propanoic acid]"
4,0.01 µM,"CCC(Oc1cc2onc(CCC(=O)O)c2cc1Cl)c1ccc(C)nn1 (single isomer, unassigned) [Example 47, 3-{5-Chloro-6-[1-(6-methylpyridazin-3-yl)propoxy]-1,2-benzoxazol-3-yl}propanoic acid]"
5,0.01 µM,"Cc1cnc(C(C)Oc2cc3onc(CCC(=O)O)c3cc2Cl)nc1 (single isomer, unassigned) [Example 39, 3-{5-Chloro-6-[1-(5-methylpyrimidin-2-yl)ethoxy]-1,2-benzoxazol-3-yl}propanoic acid]"
6,0.01 µM,"CCc1cccc(C(C)Oc2cc3onc(CCC(=O)O)c3cc2Cl)n1 (single isomer, unassigned) [Example 31, 3-{5-Chloro-6-[1-(6-ethylpyridin-2-yl)ethoxy]-1,2-benzoxazol-3-yl}propanoic acid]"
7,≤ 0.01 µM,"Cc1ccc([C@@H](C)Oc2cc3onc(CCC(=O)O)c3cc2Cl)nn1 [Example 20, (R)-3-(5-chloro-6-(1-(6-methylpyridazin-3-yl)ethoxy)benzo[d]isoxazol-3-yl)propanoic acid]"
